Test system: SEM cells
Experiment: cell viability relative to DMSO control; higher = less cytotoxic
Conditions: 48 h
In short: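 Leukemia cells (NOMO1 or SEM, 500 cells/well; P12-Ichikawa, 1000 cells/well) were seeded in 5 μl in 1536-well plates after at least four passages of adaptation to each medium. They received library compounds in DMSO by pin dosing, 11 threefold points from 47 μM to 0.79 nM. Luminescence with CellTiter-Glo One was read after 48 h at 37°C. Viability is stated per plate relative to DMSO wells, with cell-free wells as background.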

[1] = HPLM + 10% dialyzed FBS, 0.000781 µM
[2] = HPLM + 10% dialyzed FBS, 0.00234 µM
[3] = HPLM + 10% dialyzed FBS, 0.00702 µM
[4] = HPLM + 10% dialyzed FBS, 0.0211 µM
[5] = HPLM + 10% dialyzed FBS, 0.0632 µM
[6] = HPLM + 10% dialyzed FBS, 0.19 µM
[7] = HPLM + 10% dialyzed FBS, 0.569 µM
[8] = HPLM + 10% dialyzed FBS, 1.71 µM
[9] = HPLM + 10% dialyzed FBS, 5.12 µM
[10] = HPLM + 10% dialyzed FBS, 15.4 µM
[11] = HPLM + 10% dialyzed FBS, 46.1 µM
[12] = RPMI 5 mM glucose + 10% FBS, 0.000781 µM
[13] = RPMI 5 mM glucose + 10% FBS, 0.00234 µM
[14] = RPMI 5 mM glucose + 10% FBS, 0.00702 µM
[15] = RPMI 5 mM glucose + 10% FBS, 0.0211 µM
[16] = RPMI 5 mM glucose + 10% FBS, 0.0632 µM
[17] = RPMI 5 mM glucose + 10% FBS, 0.19 µM
[18] = RPMI 5 mM glucose + 10% FBS, 0.569 µM
[19] = RPMI 5 mM glucose + 10% FBS, 1.71 µM
[20] = RPMI 5 mM glucose + 10% FBS, 5.12 µM
[21] = RPMI 5 mM glucose + 10% FBS, 15.4 µM
[22] = RPMI 5 mM glucose + 10% FBS, 46.1 µM
[23] = RPMI 5 mM glucose + 10% dialyzed FBS, 0.000781 µM
[24] = RPMI 5 mM glucose + 10% dialyzed FBS, 0.00234 µM
[25] = RPMI 5 mM glucose + 10% dialyzed FBS, 0.00702 µM
[26] = RPMI 5 mM glucose + 10% dialyzed FBS, 0.0211 µM
[27] = RPMI 5 mM glucose + 10% dialyzed FBS, 0.0632 µM
[28] = RPMI 5 mM glucose + 10% dialyzed FBS, 0.19 µM
[29] = RPMI 5 mM glucose + 10% dialyzed FBS, 0.569 µM
[30] = RPMI 5 mM glucose + 10% dialyzed FBS, 1.71 µM
[31] = RPMI 5 mM glucose + 10% dialyzed FBS, 5.12 µM
[32] = RPMI 5 mM glucose + 10% dialyzed FBS, 15.4 µM
[33] = RPMI 5 mM glucose + 10% dialyzed FBS, 46.1 µM

Row | SMILES | cell viability [1] [%] | cell viability [2] [%] | cell viability [3] [%] | cell viability [4] [%] | cell viability [5] [%] | cell viability [6] [%] | cell viability [7] [%] | cell viability [8] [%] | cell viability [9] [%] | cell viability [10] [%] | cell viability [11] [%] | cell viability [12] [%] | cell viability [13] [%] | cell viability [14] [%] | cell viability [15] [%] | cell viability [16] [%] | cell viability [17] [%] | cell viability [18] [%] | cell viability [19] [%] | cell viability [20] [%] | cell viability [21] [%] | cell viability [22] [%] | cell viability [23] [%] | cell viability [24] [%] | cell viability [25] [%] | cell viability [26] [%] | cell viability [27] [%] | cell viability [28] [%] | cell viability [29] [%] | cell viability [30] [%] | cell viability [31] [%] | cell viability [32] [%] | cell viability [33] [%]
1 | CCC1(C)CC(=O)NC1=O (stereo not given) | 107 | 102 | 109 | 112 | 114 | 114 | 106 | 95.5 | 110 | 94.5 | 81.7 | 113 | 101 | 107 | 107 | 103 | 106 | 106 | 93.7 | 103 | 92.3 | 72.3 | 93.7 | 114 | 117 | 114 | 116 | 108 | 110 | 99.7 | 108 | 94 | 74.3
2 | CC(C)C(C)/C=C/C(C)C1CCC2C3=CC=C4CC(O)CCC4(C)C3CCC21C (stereo not given) | 92.6 | 79.7 | 86.7 | 73.2 | 82 | 77.4 | 83.7 | 76.5 | 68.6 | 81.8 | 86.4 | 99.6 | 107 | 111 | 99.8 | 97.1 | 94 | 111 | 92.9 | 98.5 | 96.1 | 102 | 88 | 107 | 95.1 | 83.1 | 107 | 91.4 | 117 | 105 | 87.2 | 88.8 | 88.3
3 | CCc1cc(Nc2nccc(-c3c(-c4ccc(OC)c(C(=O)Nc5c(F)cccc5F)c4)nc4ccccn34)n2)c(OC)cc1N1CCC(N2CCN([S+](C)(=O)[O-])CC2)CC1 | 88.9 | 84.9 | 102 | 93.2 | 87.7 | 84.8 | 95.3 | 89.1 | 96.2 | 82.6 | 52.4 | 88.4 | 94.6 | 102 | 100 | 107 | 121 | 105 | 91.6 | 91.9 | 66.6 | 23.5 | 83.1 | 78 | 80.7 | 101 | 87.8 | 79.9 | 86 | 80.6 | 89.1 | 65.9 | 38.7
4 | CC(N[C@H]1C[C@@H]1c1ccccc1)c1ccc2c(c1)OCCO2 (stereo not given in full) | 111 | 135 | 116 | 122 | 110 | 122 | 126 | 126 | 141 | 116 | 109 | 99.3 | 95.1 | 94.7 | 97.7 | 107 | 100 | 108 | 110 | 107 | 98.4 | 93.5 | 121 | 123 | 100 | 121 | 110 | 134 | 138 | 111 | 119 | 119 | 92.6
5 | O=NN(CCCl)C(=O)NC1CCCCC1 | 84.7 | 94.3 | 94.3 | 89.2 | 91.5 | 101 | 111 | 90.8 | 89.9 | 89.3 | 86.7 | 114 | 117 | 113 | 103 | 126 | 93.7 | 122 | 121 | 132 | 109 | 101 | 81.3 | 86.1 | 87.5 | 88.3 | 89.3 | 92.2 | 98.9 | 104 | 101 | 100 | 70.8
6 | COc1nccc(-c2c(-c3ccc(F)cc3)ncn2C2CCNCC2)n1 | 98.2 | 114 | 120 | 107 | 120 | 114 | 113 | 110 | 102 | 98.7 | 81.7 |  |  |  |  |  |  |  |  |  |  |  | 69.4 | 117 | 144 | 113 | 116 | 114 | 104 | 126 | 110 | 95.8 | 79.5
7 | O=C(NCC[S+](=O)([O-])c1ccc(C(F)(F)F)cn1)c1ccc(Cl)cc1 | 115 | 126 | 107 | 117 | 111 | 114 | 103 | 106 | 101 | 104 | 107 | 94.5 | 111 | 89.7 | 96.7 | 86.8 | 104 | 99.2 | 81 | 80.6 | 109 | 87.1 |  |  |  |  |  |  |  |  |  |  | 
8 | CNC(=O)c1ccc(-c2cnc3ncc(Cc4ccc5ncccc5c4)n3n2)cc1F | 108 | 126 | 122 | 119 | 128 | 117 | 124 | 137 | 120 | 127 | 124 | 110 | 129 | 100 | 127 | 133 | 124 | 126 | 125 | 124 | 133 | 105 | 116 | 121 | 129 | 126 | 129 | 130 | 144 | 146 | 131 | 118 | 132
9 | COC1=C(N2CCNC(C)C2)C(=CC3=C1N(\C=C(C(O)=O)/C3=O)C4CC4)F (stereo not given) | 74.8 | 88.8 | 83.1 | 84.2 | 51.8 | 66.3 | 55.2 | 51.2 | 13.9 | 21.6 | 18.1 | 98 | 95.1 | 116 | 96 | 53.2 | 92.3 | 58.5 | 61.7 | 44.8 | 37.9 | 25.6 | 73.7 | 73.3 | 79.9 | 83.1 | 48.8 | 60.2 | 48.7 | 38.5 | 13.4 | 26.6 | 12.2
10 | CC1CCC(C(=O)N(c2cc(C#CC(C)(C)C)sc2C(=O)O)C2CCC(O)CC2)CC1 (stereo not given) | 106 | 109 | 99.2 | 103 | 98 | 93.3 | 89.1 | 96 | 77.3 | 48.9 | 44.2 | 130 | 119 | 118 | 129 | 116 | 115 | 110 | 123 | 97.4 | 61.1 | 49.8 | 91.7 | 106 | 90.3 | 87.9 | 90.3 | 90.3 | 96.6 | 88.3 | 77.6 | 44.7 | 41.8
11 | CC1(C)Cc2c(-c3ccccc3)c(-c3ccc(Cl)cc3)c(CC(=O)O)n2C1 | 116 | 124 | 116 | 129 | 126 | 106 | 124 | 91.9 | 124 | 112 | 95.1 | 116 | 120 | 129 | 122 | 110 | 96.3 | 105 | 92.8 | 110 | 101 | 90.7 |  |  |  |  |  |  |  |  |  |  | 
12 | CCc1cncnc1N1CCN(Cc2nc3cc(C(F)(F)F)ccc3[nH]2)CC1 | 107 | 104 | 111 | 101 | 106 | 105 | 105 | 97.1 | 88.2 | 62.4 | 35.5 | 93.8 | 109 | 106 | 99.9 | 101 | 108 | 96.2 | 94.7 | 84.3 | 62 | 23.7 | 73.3 | 112 | 111 | 109 | 103 | 105 | 81.2 | 98.2 | 84.4 | 60.8 | 22.1
13 | NC1(Cc2ccc(Cl)cc2)CCN(c2ncnc3[nH]ccc23)CC1 | 103 | 106 | 96 | 100 | 92.8 | 91.6 | 95.7 | 75.7 | 66.9 | 6.62 | 2.55 | 107 | 117 | 118 | 116 | 112 | 106 | 86.1 | 79.6 | 59.8 | 4.37 | 2.8 | 106 | 98.6 | 99.7 | 92.7 | 81.8 | 83.7 | 82.9 | 74.5 | 54.7 | 6.24 | 2.65
14 | O=C(OC)[C@]12CC[C@@]3(C)[C@]4(C)CC[C@H]5[C@@](C)(C)C(=O)C(=C[C@]5(C)C4=CC(=O)[C@@H]3[C@@H]2C[C@](C)(C)CC1)C#N | 92.6 | 83.3 | 100 | 101 | 104 | 99.7 | 98.1 | 107 | 81 | 3.9 | 4.06 | 101 | 91.8 | 112 | 94.6 | 110 | 97.4 | 101 | 99.7 | 109 | 3.61 | 4.26 | 82 | 87.2 | 90.8 | 92.6 | 109 | 102 | 103 | 77.4 | 73.6 | 3.1 | 3.38
15 | CC\1=C(C(\N=C(/N1)C2=CC(=NC=C2)Cl)C3=C(F)C=C(Cl)C=C3)/C(=O)NC4=C(F)C=C5[NH]N=CC5=C4 (stereo not given) | 82.1 | 84.4 | 100 | 94.9 | 93.2 | 99.6 | 104 | 103 | 81.2 | 54.5 | 10.8 | 102 | 86.8 | 97.3 | 117 | 94.5 | 99.1 | 99.9 | 85.4 | 66.3 | 51.7 | 6.87 | 87.7 | 90.3 | 103 | 108 | 102 | 122 | 96.3 | 101 | 81.3 | 55.2 | 13.5
16 | CC[C@H](CC#N)OC(=O)N[C@@H](C)c1cccc(NC(=O)Nc2ccc(-c3cnco3)c(OC)c2)c1 | 105 | 98.7 | 111 | 119 | 118 | 86.2 | 71.8 | 74.8 | 44.5 | 30.3 | 31.6 | 108 | 112 | 114 | 118 | 112 | 96 | 76.3 | 68 | 47.7 | 30.2 | 18.1 | 107 | 110 | 124 | 105 | 105 | 112 | 100 | 99.6 | 67.9 | 43.3 | 38.7

Source: the supplement of paper PMC11451515
